# Results taken from US20200024278A1, “COMPOSITION COMPRISING ANTIBIOTIC COMPOUND AND AN HETEROCYCLIC COMPOUND AND THEIR USE IN PREVENTING OR TREATING BACTERIAL INFECTIONS” (MUTABILIS, priority 2016, published 2020).
# How the values were obtained:
# Assay in all cases: MIC, broth microdilution (CLSI), substance alone or ATB combined with compound at 4 or 8 μg/mL
# Type in all cases: cell-based, A. baumannii
# ABA UFR151 = tested on: ABA UFR151
# Method in brief: (§1)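 Growth inhibition endpoint, read visually after 16-20 h at 35° C in ambient air. Cation-adjusted Mueller-Hinton broth, inoculum 5·10^5 CFU/mL, CLSI M7-A7 protocol.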
# ABA UFR152 = tested on: ABA UFR152
# Method in brief: as §1
# ABA UFR153 = tested on: ABA UFR153
# Method in brief: as §1
# ABA UFR154 = tested on: ABA UFR154
# Method in brief: as §1
# ABA UFR155 = tested on: ABA UFR155
# Method in brief: as §1
# ABA UFR156 = tested on: ABA UFR156
# Method in brief: as §1
# ABA UFR157 = tested on: ABA UFR157
# Method in brief: as §1
# ABA UFR158 = tested on: ABA UFR158
# Method in brief: as §1
# ABA UFR159 = tested on: ABA UFR159
# Method in brief: as §1
# ABA UFR160 = tested on: ABA UFR160
# Method in brief: as §1
# ABA UFR161 = tested on: ABA UFR161
# Method in brief: as §1
# [1] = Acinetobacter baumannii, antibiotic alone, read-out: MIC ATB alone
smiles,measurement,setting,value
"CO/N=C(\C(=O)N[C@@H]1C(=O)N2C(C(=O)[O-])=C(C[N+]3(C)CCCC3)CS[C@H]12)c1csc(N)n1 [FEP, Cefepime]",MIC,ABA UFR151; [1],2 µg/mL
same,MIC ATB combined with Example 1 @8 μg/ml,ABA UFR151; with Example 1 @8 μg/ml,2 µg/mL
same,MIC ATB combined with Example 3 @8 μg/ml,ABA UFR151; with Example 3 @8 μg/ml,1 µg/mL
same,MIC ATB combined with Example 6 @8 μg/ml,ABA UFR151; with Example 6 @8 μg/ml,<0.25 µg/mL
same,MIC ATB combined with Example 9 @4 μg/ml,ABA UFR151; with Example 9 @4 μg/ml,2 µg/mL
same,MIC ATB combined with Example 10 @8 μg/ml,ABA UFR151; with Example 10 @8 μg/ml,2 µg/mL
same,MIC ATB combined with Example 11 @8 μg/ml,ABA UFR151; with Example 11 @8 μg/ml,2 µg/mL
same,MIC ATB combined with Example 12 @8 μg/ml,ABA UFR151; with Example 12 @8 μg/ml,2 µg/mL
same,MIC ATB combined with Example 15 @4 μg/ml,ABA UFR151; with Example 15 @4 μg/ml,2 µg/mL
same,MIC,ABA UFR152; [1],16 µg/mL
same,MIC ATB combined with Example 1 @8 μg/ml,ABA UFR152; with Example 1 @8 μg/ml,16 µg/mL
same,MIC ATB combined with Example 3 @8 μg/ml,ABA UFR152; with Example 3 @8 μg/ml,8 µg/mL
same,MIC ATB combined with Example 6 @8 μg/ml,ABA UFR152; with Example 6 @8 μg/ml,16 µg/mL
same,MIC ATB combined with Example 9 @4 μg/ml,ABA UFR152; with Example 9 @4 μg/ml,16 µg/mL
same,MIC ATB combined with Example 10 @8 μg/ml,ABA UFR152; with Example 10 @8 μg/ml,8 µg/mL
same,MIC ATB combined with Example 11 @8 μg/ml,ABA UFR152; with Example 11 @8 μg/ml,16 µg/mL
same,MIC ATB combined with Example 12 @8 μg/ml,ABA UFR152; with Example 12 @8 μg/ml,8 µg/mL
same,MIC ATB combined with Example 15 @4 μg/ml,ABA UFR152; with Example 15 @4 μg/ml,16 µg/mL
same,MIC,ABA UFR153; [1],> 128 µg/mL
same,MIC ATB combined with Example 1 @8 μg/ml,ABA UFR153; with Example 1 @8 μg/ml,16 µg/mL
same,MIC ATB combined with Example 3 @8 μg/ml,ABA UFR153; with Example 3 @8 μg/ml,8 µg/mL
same,MIC ATB combined with Example 6 @8 μg/ml,ABA UFR153; with Example 6 @8 μg/ml,<=0.25 μg/mL
same,MIC ATB combined with Example 9 @4 μg/ml,ABA UFR153; with Example 9 @4 μg/ml,16 µg/mL
same,MIC ATB combined with Example 10 @8 μg/ml,ABA UFR153; with Example 10 @8 μg/ml,8 µg/mL
same,MIC ATB combined with Example 11 @8 μg/ml,ABA UFR153; with Example 11 @8 μg/ml,16 µg/mL
same,MIC ATB combined with Example 12 @8 μg/ml,ABA UFR153; with Example 12 @8 μg/ml,8 µg/mL
same,MIC ATB combined with Example 15 @4 μg/ml,ABA UFR153; with Example 15 @4 μg/ml,16 µg/mL
same,MIC,ABA UFR154; [1],2 µg/mL
same,MIC ATB combined with Example 1 @8 μg/ml,ABA UFR154; with Example 1 @8 μg/ml,2 µg/mL
same,MIC ATB combined with Example 3 @8 μg/ml,ABA UFR154; with Example 3 @8 μg/ml,1 µg/mL
same,MIC ATB combined with Example 6 @8 μg/ml,ABA UFR154; with Example 6 @8 μg/ml,1 µg/mL
same,MIC ATB combined with Example 9 @4 μg/ml,ABA UFR154; with Example 9 @4 μg/ml,1 µg/mL
same,MIC ATB combined with Example 10 @8 μg/ml,ABA UFR154; with Example 10 @8 μg/ml,0.5 µg/mL
same,MIC ATB combined with Example 11 @8 μg/ml,ABA UFR154; with Example 11 @8 μg/ml,1 µg/mL
same,MIC ATB combined with Example 12 @8 μg/ml,ABA UFR154; with Example 12 @8 μg/ml,1 µg/mL
same,MIC ATB combined with Example 15 @4 μg/ml,ABA UFR154; with Example 15 @4 μg/ml,2 µg/mL
same,MIC,ABA UFR155; [1],128 µg/mL
same,MIC ATB combined with Example 1 @8 μg/ml,ABA UFR155; with Example 1 @8 μg/ml,64 µg/mL
same,MIC ATB combined with Example 3 @8 μg/ml,ABA UFR155; with Example 3 @8 μg/ml,32 µg/mL
same,MIC ATB combined with Example 6 @8 μg/ml,ABA UFR155; with Example 6 @8 μg/ml,16 µg/mL
same,MIC ATB combined with Example 9 @4 μg/ml,ABA UFR155; with Example 9 @4 μg/ml,32 µg/mL
same,MIC ATB combined with Example 10 @8 μg/ml,ABA UFR155; with Example 10 @8 μg/ml,64 µg/mL
same,MIC ATB combined with Example 11 @8 μg/ml,ABA UFR155; with Example 11 @8 μg/ml,64 µg/mL
same,MIC ATB combined with Example 12 @8 μg/ml,ABA UFR155; with Example 12 @8 μg/ml,64 µg/mL
same,MIC ATB combined with Example 15 @4 μg/ml,ABA UFR155; with Example 15 @4 μg/ml,32 µg/mL
same,MIC,ABA UFR156; [1],> 128 µg/mL
same,MIC ATB combined with Example 1 @8 μg/ml,ABA UFR156; with Example 1 @8 μg/ml,32 µg/mL
same,MIC ATB combined with Example 3 @8 μg/ml,ABA UFR156; with Example 3 @8 μg/ml,8 µg/mL
same,MIC ATB combined with Example 6 @8 μg/ml,ABA UFR156; with Example 6 @8 μg/ml,8 µg/mL
same,MIC ATB combined with Example 9 @4 μg/ml,ABA UFR156; with Example 9 @4 μg/ml,32 µg/mL
same,MIC ATB combined with Example 10 @8 μg/ml,ABA UFR156; with Example 10 @8 μg/ml,8 µg/mL
same,MIC ATB combined with Example 11 @8 μg/ml,ABA UFR156; with Example 11 @8 μg/ml,32 µg/mL
same,MIC ATB combined with Example 12 @8 μg/ml,ABA UFR156; with Example 12 @8 μg/ml,32 µg/mL
same,MIC ATB combined with Example 15 @4 μg/ml,ABA UFR156; with Example 15 @4 μg/ml,32 µg/mL
same,MIC,ABA UFR157; [1],32 µg/mL
same,MIC ATB combined with Example 1 @8 μg/ml,ABA UFR157; with Example 1 @8 μg/ml,8 µg/mL
same,MIC ATB combined with Example 3 @8 μg/ml,ABA UFR157; with Example 3 @8 μg/ml,4 µg/mL
same,MIC ATB combined with Example 6 @8 μg/ml,ABA UFR157; with Example 6 @8 μg/ml,<0.25 µg/mL
same,MIC ATB combined with Example 9 @4 μg/ml,ABA UFR157; with Example 9 @4 μg/ml,8 µg/mL
same,MIC ATB combined with Example 10 @8 μg/ml,ABA UFR157; with Example 10 @8 μg/ml,8 µg/mL
same,MIC ATB combined with Example 11 @8 μg/ml,ABA UFR157; with Example 11 @8 μg/ml,8 µg/mL
same,MIC ATB combined with Example 12 @8 μg/ml,ABA UFR157; with Example 12 @8 μg/ml,4 µg/mL
same,MIC ATB combined with Example 15 @4 μg/ml,ABA UFR157; with Example 15 @4 μg/ml,8 µg/mL
same,MIC,ABA UFR158; [1],> 128 µg/mL
same,MIC ATB combined with Example 1 @8 μg/ml,ABA UFR158; with Example 1 @8 μg/ml,>128 µg/mL
same,MIC ATB combined with Example 3 @8 μg/ml,ABA UFR158; with Example 3 @8 μg/ml,>128 µg/mL
same,MIC ATB combined with Example 6 @8 μg/ml,ABA UFR158; with Example 6 @8 μg/ml,<0.25 µg/mL
same,MIC ATB combined with Example 9 @4 μg/ml,ABA UFR158; with Example 9 @4 μg/ml,>128 µg/mL
same,MIC ATB combined with Example 10 @8 μg/ml,ABA UFR158; with Example 10 @8 μg/ml,>128 µg/mL
same,MIC ATB combined with Example 11 @8 μg/ml,ABA UFR158; with Example 11 @8 μg/ml,>128 µg/mL
same,MIC ATB combined with Example 12 @8 μg/ml,ABA UFR158; with Example 12 @8 μg/ml,>128 µg/mL
same,MIC ATB combined with Example 15 @4 μg/ml,ABA UFR158; with Example 15 @4 μg/ml,>128 µg/mL
same,MIC,ABA UFR159; [1],> 128 µg/mL
same,MIC ATB combined with Example 1 @8 μg/ml,ABA UFR159; with Example 1 @8 μg/ml,>128 µg/mL
same,MIC ATB combined with Example 3 @8 μg/ml,ABA UFR159; with Example 3 @8 μg/ml,>128 µg/mL
same,MIC ATB combined with Example 6 @8 μg/ml,ABA UFR159; with Example 6 @8 μg/ml,>128 µg/mL
same,MIC ATB combined with Example 9 @4 μg/ml,ABA UFR159; with Example 9 @4 μg/ml,>128 µg/mL
same,MIC ATB combined with Example 10 @8 μg/ml,ABA UFR159; with Example 10 @8 μg/ml,>128 µg/mL
same,MIC ATB combined with Example 11 @8 μg/ml,ABA UFR159; with Example 11 @8 μg/ml,>128 µg/mL
same,MIC ATB combined with Example 12 @8 μg/ml,ABA UFR159; with Example 12 @8 μg/ml,>128 µg/mL
same,MIC ATB combined with Example 15 @4 μg/ml,ABA UFR159; with Example 15 @4 μg/ml,>128 µg/mL
same,MIC,ABA UFR160; [1],> 128 µg/mL
same,MIC ATB combined with Example 1 @8 μg/ml,ABA UFR160; with Example 1 @8 μg/ml,>128 µg/mL
same,MIC ATB combined with Example 3 @8 μg/ml,ABA UFR160; with Example 3 @8 μg/ml,>128 µg/mL
same,MIC ATB combined with Example 6 @8 μg/ml,ABA UFR160; with Example 6 @8 μg/ml,<0.25 µg/mL
same,MIC ATB combined with Example 9 @4 μg/ml,ABA UFR160; with Example 9 @4 μg/ml,>128 µg/mL
same,MIC ATB combined with Example 10 @8 μg/ml,ABA UFR160; with Example 10 @8 μg/ml,>128 µg/mL
same,MIC ATB combined with Example 11 @8 μg/ml,ABA UFR160; with Example 11 @8 μg/ml,>128 µg/mL
same,MIC ATB combined with Example 12 @8 μg/ml,ABA UFR160; with Example 12 @8 μg/ml,>128 µg/mL
same,MIC ATB combined with Example 15 @4 μg/ml,ABA UFR160; with Example 15 @4 μg/ml,>128 µg/mL
same,MIC,ABA UFR161; [1],> 128 µg/mL
same,MIC ATB combined with Example 1 @8 μg/ml,ABA UFR161; with Example 1 @8 μg/ml,>128 µg/mL
same,MIC ATB combined with Example 3 @8 μg/ml,ABA UFR161; with Example 3 @8 μg/ml,>128 µg/mL
same,MIC ATB combined with Example 6 @8 μg/ml,ABA UFR161; with Example 6 @8 μg/ml,>128 µg/mL
same,MIC ATB combined with Example 9 @4 μg/ml,ABA UFR161; with Example 9 @4 μg/ml,>128 µg/mL
same,MIC ATB combined with Example 10 @8 μg/ml,ABA UFR161; with Example 10 @8 μg/ml,>128 µg/mL
same,MIC ATB combined with Example 11 @8 μg/ml,ABA UFR161; with Example 11 @8 μg/ml,>128 µg/mL
same,MIC ATB combined with Example 12 @8 μg/ml,ABA UFR161; with Example 12 @8 μg/ml,>128 µg/mL
same,MIC ATB combined with Example 15 @4 μg/ml,ABA UFR161; with Example 15 @4 μg/ml,>128 µg/mL
